Data set [1] is described as follows: Hepatocyte (Hep) intrinsic clearance, human. In kind it is in vitro ADME. To be noted: hepatocytes.
The nature of data set [2]: Liver microsome (LM) intrinsic clearance, human. Format: in vitro ADME.
The next data set deals with CYP2D6 (Homo sapiens (Human), UniProt P10635). Put plainly: CYP450 inhibition at 10 μM, CYP2D6. In kind it is in vitro ADME. To be noted: read-out: CYP 450 % INH @ 10 μM.
The target in a further data set is adenosine A2B receptor (Homo sapiens (Human), UniProt P29275). Put plainly: Adenosine receptor activity assay (Table 1), A2B activity. Conditions: for Ratio: A2A activity to A2B activity (A2A/A2B); for IC50: read-out: Ave A2B cAMP IC50. In kind it is biochemical.
A short description of data set [3]: Hepatocyte (Hep) intrinsic clearance, rat. In kind it is in vitro ADME. Conditions: hepatocytes.
Another data set deals with CYP3A4 (Homo sapiens (Human), UniProt P08684). Briefly: CYP450 inhibition at 10 μM, CYP3A4. Format: in vitro ADME. Conditions: for inhibition at 10 µM: human, read-out: CYP 450 % INH @ 10 μM.
A further data set concerns the target adenosine A3 receptor (Homo sapiens (Human), UniProt P0DMS8). Briefly: A3 cAMP IC50 assay (Table 1). In kind it is biochemical.
A further data set has as its target adenosine A2A receptor (Homo sapiens (Human), UniProt P29274). Briefly: Adenosine receptor activity assay (Table 1), A2A activity. Format: biochemical. Conditions: read-out: Ave A2A cAMP IC50.
The next data set deals with adenosine A1 receptor (Homo sapiens (Human), UniProt P30542). Briefly: A1 cAMP IC50 assay (Table 1). Format: biochemical.
The nature of data set [4]: Liver microsome (LM) intrinsic clearance, rat. In kind it is in vitro ADME.

The structures appear in SMILES notation.

adenosine A3 receptor, sequence (P0DMS8 whole entry): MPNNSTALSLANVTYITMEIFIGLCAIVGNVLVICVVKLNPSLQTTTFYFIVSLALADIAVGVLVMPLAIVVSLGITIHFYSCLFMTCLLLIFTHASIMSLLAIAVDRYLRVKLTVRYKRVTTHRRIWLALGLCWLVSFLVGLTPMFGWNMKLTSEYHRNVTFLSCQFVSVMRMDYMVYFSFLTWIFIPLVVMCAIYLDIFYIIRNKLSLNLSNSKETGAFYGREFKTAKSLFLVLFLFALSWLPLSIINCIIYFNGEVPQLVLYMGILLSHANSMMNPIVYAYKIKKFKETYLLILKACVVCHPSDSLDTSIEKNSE
adenosine A2B receptor, sequence (P29275 whole entry): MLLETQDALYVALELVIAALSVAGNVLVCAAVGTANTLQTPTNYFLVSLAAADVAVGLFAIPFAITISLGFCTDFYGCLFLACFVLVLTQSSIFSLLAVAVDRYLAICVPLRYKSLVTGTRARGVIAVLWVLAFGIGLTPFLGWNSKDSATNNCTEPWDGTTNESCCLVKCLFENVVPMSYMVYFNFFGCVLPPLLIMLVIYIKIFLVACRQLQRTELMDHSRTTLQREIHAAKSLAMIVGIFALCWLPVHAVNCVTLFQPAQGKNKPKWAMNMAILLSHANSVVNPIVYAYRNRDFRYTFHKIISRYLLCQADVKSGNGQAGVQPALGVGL
CYP2D6, sequence (P10635 whole entry): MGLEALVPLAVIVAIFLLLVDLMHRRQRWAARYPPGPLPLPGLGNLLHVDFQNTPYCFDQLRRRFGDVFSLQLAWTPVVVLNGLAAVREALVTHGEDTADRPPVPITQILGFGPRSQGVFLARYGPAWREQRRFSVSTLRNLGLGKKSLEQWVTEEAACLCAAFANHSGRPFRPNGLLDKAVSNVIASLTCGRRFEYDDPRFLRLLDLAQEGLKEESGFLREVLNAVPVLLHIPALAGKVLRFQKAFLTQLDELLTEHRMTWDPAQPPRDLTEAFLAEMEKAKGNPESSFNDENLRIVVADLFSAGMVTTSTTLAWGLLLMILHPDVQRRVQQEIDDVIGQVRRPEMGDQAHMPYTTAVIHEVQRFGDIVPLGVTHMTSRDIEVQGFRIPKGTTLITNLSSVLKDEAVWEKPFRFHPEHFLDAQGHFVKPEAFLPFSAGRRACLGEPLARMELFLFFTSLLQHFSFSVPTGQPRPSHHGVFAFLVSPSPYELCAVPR
adenosine A2A receptor, sequence (P29274 whole entry): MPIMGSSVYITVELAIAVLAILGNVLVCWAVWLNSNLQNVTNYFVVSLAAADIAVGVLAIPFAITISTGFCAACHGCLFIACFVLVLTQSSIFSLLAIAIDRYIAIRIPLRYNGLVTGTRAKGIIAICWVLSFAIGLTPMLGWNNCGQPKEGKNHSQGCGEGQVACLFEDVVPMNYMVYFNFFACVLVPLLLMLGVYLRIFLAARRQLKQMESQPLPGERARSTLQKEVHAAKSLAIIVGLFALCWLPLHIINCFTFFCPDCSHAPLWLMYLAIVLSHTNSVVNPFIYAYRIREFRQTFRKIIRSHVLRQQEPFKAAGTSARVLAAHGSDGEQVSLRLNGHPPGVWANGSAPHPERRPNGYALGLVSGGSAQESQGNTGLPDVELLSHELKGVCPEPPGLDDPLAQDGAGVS
CYP3A4, sequence (P08684 whole entry): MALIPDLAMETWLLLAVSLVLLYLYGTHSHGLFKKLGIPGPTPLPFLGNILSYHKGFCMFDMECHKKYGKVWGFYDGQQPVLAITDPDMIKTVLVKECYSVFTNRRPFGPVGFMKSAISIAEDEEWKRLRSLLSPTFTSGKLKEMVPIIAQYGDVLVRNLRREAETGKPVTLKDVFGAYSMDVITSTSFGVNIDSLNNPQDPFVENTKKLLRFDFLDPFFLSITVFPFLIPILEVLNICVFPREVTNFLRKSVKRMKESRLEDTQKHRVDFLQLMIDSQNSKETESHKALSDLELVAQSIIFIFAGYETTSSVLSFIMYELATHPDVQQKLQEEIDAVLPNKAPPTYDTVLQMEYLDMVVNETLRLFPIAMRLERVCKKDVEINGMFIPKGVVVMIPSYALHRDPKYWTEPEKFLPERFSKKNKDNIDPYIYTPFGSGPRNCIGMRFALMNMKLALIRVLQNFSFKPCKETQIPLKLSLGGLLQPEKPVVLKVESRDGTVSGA
adenosine A1 receptor, sequence (P30542 whole entry): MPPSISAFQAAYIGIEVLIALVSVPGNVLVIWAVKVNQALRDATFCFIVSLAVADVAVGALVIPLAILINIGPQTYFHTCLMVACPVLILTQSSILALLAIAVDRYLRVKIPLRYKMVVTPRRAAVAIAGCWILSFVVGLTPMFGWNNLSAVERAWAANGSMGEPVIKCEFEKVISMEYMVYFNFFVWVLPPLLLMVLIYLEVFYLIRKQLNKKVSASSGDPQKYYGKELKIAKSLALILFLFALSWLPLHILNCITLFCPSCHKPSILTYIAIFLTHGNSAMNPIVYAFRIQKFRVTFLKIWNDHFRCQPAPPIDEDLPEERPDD

Regarding `C[C@H](Nc1nc(C(=O)N2CCC2)c2sccc2n1)c1cccnc1` [Example Z2, (S)-Azetidin-1-yl(2-((1-(pyridin-3-yl)ethyl)amino)thieno[3,2-d]pyrimidin-4-yl)methanone], the hepatocyte CLint came out at 9.27 µL/min/1e6 cells in data set [1] and 37.7 µL/min/1e6 cells in data set [3]. Besides, the “LM CLint” value in [2] is listed as 23.61 μL/min/mg/protein; in data set [4] it was 27.86 μL/min/mg/protein. For the same compound, the figures for the inhibition at 10 µM on CYP2D6 and at CYP3A4 were 38% and 66%, respectively. Further, the Ratio at adenosine A2B receptor is on record as 31.36. Further, the IC50 on adenosine A2B receptor was < 10 nM; against adenosine A3 receptor, > 500 nM; at adenosine A2A receptor, 100 to 500 nM; at adenosine A1 receptor it was > 500 nM.

Take `C[C@H](Nc1nc(C(=O)N2CC[C@@H](F)C2)c2sccc2n1)c1cccnc1` [Example Z8, ((R)-3-Fluoropyrrolidin-1-yl)(2-(((S)-1-(pyridin-3-yl)ethyl)amino)thieno[3,2-d]pyrimidin-4-yl)methanone]: the hepatocyte CLint in data set [1] worked out at 7.75 µL/min/1e6 cells; in [3] it was 47.6 µL/min/1e6 cells. The “LM CLint” value in data set [2] turned out to be 17.06 μL/min/mg/protein; in data set [4], 20.43 μL/min/mg/protein. For the same compound, the inhibition at 10 µM on CYP2D6 is 41%; on CYP3A4 it was 74%. Besides, the Ratio at adenosine A2B receptor came to 7.83. Also, the IC50 was 10 to 50 nM on adenosine A2B receptor, > 500 nM against adenosine A3 receptor, 100 to 500 nM on adenosine A2A receptor and > 500 nM against adenosine A1 receptor.

On to `C[C@H](Nc1nc(C(=O)N2CC[C@H](F)C2)c2sccc2n1)c1cccnc1` [Example Z9, ((S)-3-Fluoropyrrolidin-1-yl)(2-(((S)-1-(pyridin-3-yl)ethyl)amino)thieno[3,2-d]pyrimidin-4-yl)methanone], for which the hepatocyte CLint in data set [1] is 11.4 µL/min/1e6 cells; in data set [3] it was 70.1 µL/min/1e6 cells. The “LM CLint” value amounted to 15.83 μL/min/mg/protein in data set [2] and 28.41 μL/min/mg/protein in data set [4]. For the same compound, the inhibition at 10 µM on CYP2D6 was 20%; on CYP3A4, 71%. For the same compound, the Ratio on adenosine A2B receptor amounted to 2.55. Besides, the figures for the IC50 at adenosine A2B receptor and at adenosine A2A receptor were 10 to 50 nM and 50 to 100 nM, respectively.

With `COc1ccc(CNC(=O)c2nc(N[C@@H](C)c3ccccn3)nc3ccsc23)cn1` [Example Z16, (S)—N-((6-Methoxypyridin-3-yl)methyl)-2-((1-(pyridin-2-yl)ethyl)amino)thieno[3,2-d]pyrimidine-4-carboxamide], the hepatocyte CLint came to 14.5 µL/min/1e6 cells in data set [1] and 58.6 µL/min/1e6 cells in [3]. Moreover, the “LM CLint” value in data set [2] is 17.68 μL/min/mg/protein; in data set [4], 32.42 μL/min/mg/protein. Further, the inhibition at 10 µM at CYP2D6 came out at 13%; on CYP3A4, 46%. For the same compound, the Ratio on adenosine A2B receptor is 1.67. The IC50 on adenosine A2B receptor was 10 to 50 nM; against adenosine A3 receptor, > 500 nM; on adenosine A2A receptor, 50 to 100 nM; at adenosine A1 receptor, > 500 nM.

In the case of `CO[C@H]1CCN(C(=O)c2nc(N[C@@H](C)c3cccnc3)nc3ccsc23)C1` [Example Z18, ((S)-3-Methoxypyrrolidin-1-yl)(2-(((S)-1-(pyridin-3-yl)ethyl)amino)thieno[3,2-d]pyrimidin-4-yl)methanone], the hepatocyte CLint is 12.3 µL/min/1e6 cells in [1] and 68.4 µL/min/1e6 cells in data set [3]. Besides, the “LM CLint” value in [2] came to 14.28 μL/min/mg/protein; in data set [4], 44.15 μL/min/mg/protein. In addition, the inhibition at 10 µM was 44% at CYP2D6 and 52% on CYP3A4. Further, the Ratio at adenosine A2B receptor was found to be 0.88. Besides, the IC50 at adenosine A2B receptor was 50 to 100 nM; against adenosine A3 receptor, > 500 nM; at adenosine A2A receptor, 50 to 100 nM; against adenosine A1 receptor it was > 500 nM.

Take `CO[C@@H]1CCN(C(=O)c2nc(N[C@@H](C)c3cccnc3)nc3ccsc23)C1` [Example Z19, ((R)-3-Methoxypyrrolidin-1-yl)(2-(((S)-1-(pyridin-3-yl)ethyl)amino)thieno[3,2-d]pyrimidin-4-yl)methanone]: the results for the hepatocyte CLint in [1] and in data set [3] were 12.9 µL/min/1e6 cells and 83.4 µL/min/1e6 cells, respectively. Moreover, the “LM CLint” value came to 17.60 μL/min/mg/protein in [2] and 63.06 μL/min/mg/protein in data set [4]. Further, the values for the inhibition at 10 µM at CYP2D6 and at CYP3A4 were 51% and 42%, respectively. Besides, at adenosine A2B receptor, the Ratio was found to be 1.37. For the same compound, the IC50 at adenosine A2B receptor is 10 to 50 nM; against adenosine A3 receptor, 50 to 100 nM; on adenosine A2A receptor it was 10 to 50 nM; against adenosine A1 receptor it was > 500 nM.

As to `O=C(c1nc(NCc2cncc(F)c2)nc2ccsc12)N1CCCC1` [Example Z21, (2-(((5-Fluoropyridin-3-yl)methyl)amino)thieno[3,2-d]pyrimidin-4-yl)(pyrrolidin-1-yl)methanone], the figures for the hepatocyte CLint in data set [1] and in data set [3] were 23.1 µL/min/1e6 cells and 71.2 µL/min/1e6 cells, respectively. In addition, the “LM CLint” value in [2] is 43.24 μL/min/mg/protein; in data set [4], 89.01 μL/min/mg/protein. In addition, the inhibition at 10 µM at CYP2D6 came to 4%; on CYP3A4 it was 45%. Further, the “CYP3A4 IC50” value on CYP3A4 turned out to be 12400 nM. The IC50 on adenosine A2A receptor lay within 100 to 500 nM.

In the case of `C[C@H](Nc1nc(C(=O)N2CC[C@@H](O)C2)c2sccc2n1)c1cccnc1` [Example Z29, ((R)-3-Hydroxypyrrolidin-1-yl)(2-(((S)-1-(pyridin-3-yl)ethyl)amino)thieno[3,2-d]pyrimidin-4-yl)methanone], the intrinsic metabolic clearance (hepatocyte CLint) in data set [1] came out at 4.27 µL/min/1e6 cells; in [3], 44 µL/min/1e6 cells. In addition, the “LM CLint” value was found to be 4.28 μL/min/mg/protein in data set [2] and 9.22 μL/min/mg/protein in data set [4]. Besides, the figures for the inhibition at 10 µM on CYP2D6 and at CYP3A4 were 16% and 26%, respectively. Moreover, the Ratio at adenosine A2B receptor is given as 24.95. For the same compound, the half-maximal inhibitory concentration (IC50) at adenosine A2B receptor was 50 to 100 nM; against adenosine A3 receptor it was > 500 nM; at adenosine A2A receptor, > 500 nM; at adenosine A1 receptor, > 500 nM.

Regarding `Cc1cncc(CNc2nc(C(=O)N3CCCC3)c3sccc3n2)c1` [Example Z50, (2-(((5-Methylpyridin-3-yl)methyl)amino)thieno[3,2-d]pyrimidin-4-yl)(pyrrolidin-1-yl)methanone], the hepatocyte CLint is 49 µL/min/1e6 cells in data set [1] and 149 µL/min/1e6 cells in data set [3]. Moreover, the figures for the “LM CLint” value in data set [2] and in data set [4] were 126.01 μL/min/mg/protein and 129.90 μL/min/mg/protein, respectively. Moreover, the values for the inhibition at 10 µM at CYP2D6 and on CYP3A4 were 32% and 79%, respectively. At adenosine A2B receptor, the Ratio was 5.23. Further, the IC50 at adenosine A2B receptor is 10 to 50 nM; at adenosine A2A receptor it was > 500 nM.

Regarding `C[C@H](Nc1nc(C(=O)N2CC[C@H](F)C2)c2sccc2n1)c1ccccn1` [Example Z53, ((S)-3-Fluoropyrrolidin-1-yl)(2-(((S)-1-(pyridin-2-yl)ethyl)amino)thieno[3,2-d]pyrimidin-4-yl)methanone], the hepatocyte CLint in [1] was determined as 10.9 µL/min/1e6 cells; in data set [3] it was 42.7 µL/min/1e6 cells. Further, the “LM CLint” value turned out to be 13.51 μL/min/mg/protein in data set [2] and 14.92 μL/min/mg/protein in data set [4]. For the same compound, the inhibition at 10 µM stood at 0% on CYP2D6 and 10% at CYP3A4. Further, at adenosine A2B receptor, the Ratio was determined as 7.15. Also, the results for the IC50 at adenosine A2B receptor and on adenosine A2A receptor were < 10 nM and 50 to 100 nM, respectively.

For the compound `O=C(c1nc(NCc2cncc(F)c2)nc2ccsc12)N1CC[C@@H](O)C1` [Example Z66, (R)-(2-(((5-Fluoropyridin-3-yl)methyl)amino)thieno[3,2-d]pyrimidin-4-yl)(3-hydroxypyrrolidin-1-yl)methanone], the figures for the intrinsic clearance (hepatocyte CLint) in data set [1] and in [3] were 7.1 µL/min/1e6 cells and 21.2 µL/min/1e6 cells, respectively. Besides, the figures for the “LM CLint” value in data set [2] and in data set [4] were 16.45 μL/min/mg/protein and 14.07 μL/min/mg/protein, respectively. Besides, the inhibition at 10 µM on CYP2D6 amounted to 4%; on CYP3A4, 24%. Also, on adenosine A2B receptor, the Ratio came to 15.71. The concentration for half-maximal inhibition (IC50) on adenosine A2B receptor was 10 to 50 nM; at adenosine A2A receptor, 100 to 500 nM.

Consider `C[C@H](Nc1nc(C(=O)N2CCCC2)c2sccc2n1)c1cccc(F)c1` [Example Z125, (S)-(2-((1-(3-Fluorophenyl)ethyl)amino)thieno[3,2-d]pyrimidin-4-yl)(pyrrolidin-1-yl)methanone], for which the values for the hepatocyte CLint in data set [1] and in data set [3] were 42.8 µL/min/1e6 cells and 144 µL/min/1e6 cells, respectively. The Ratio on adenosine A2B receptor was 15.42. The IC50 at adenosine A2B receptor is < 10 nM; at adenosine A3 receptor it was > 500 nM; at adenosine A2A receptor, 100 to 500 nM; at adenosine A1 receptor, > 500 nM. The inhibition at 10 µM at CYP3A4 is -50.9%.

In the case of `C[C@H](Nc1nc(C(=O)N2CCCC2)c2sccc2n1)c1cncc(F)c1` [Example Z134, (S)-(2-((1-(5-Fluoropyridin-3-yl)ethyl)amino)thieno[3,2-d]pyrimidin-4-yl)(pyrrolidin-1-yl)methanone], the hepatocyte CLint was found to be 17.9 µL/min/1e6 cells in data set [1] and 72.9 µL/min/1e6 cells in data set [3]. Besides, on adenosine A2B receptor, the Ratio is recorded as 72.09. Further, the half-inhibitory concentration (IC50) at adenosine A2B receptor is < 10 nM; against adenosine A3 receptor, > 500 nM; on adenosine A2A receptor it was 100 to 500 nM; on adenosine A1 receptor, > 500 nM. In addition, the inhibition at 10 µM at CYP3A4 came to 62.7%.

In general, hepatocyte CLint refers to a measure of how fast metabolising enzymes remove a compound, apart from limits set by blood flow. By IC50 is commonly meant the concentration needed to halve the response being measured.

Values taken from US11254686B1 (Corvus Pharmaceuticals, Inc., priority 2017, dated 2022).
